Data taken from PMC12486152, “Design, modular synthesis and screening of 58 shape-diverse 3-D fragments” (Chemical Science, 2025).

Biological target: T1, N-acetylglucosaminyltransferase V (MGATV) (Homo sapiens, UniProt Q09328)
T1 construct: gene MGAT5
Assay: X-ray crystal structure by soaking; also thermal shift, STD NMR and enzyme (UDP-Glo) inhibition (IC50, n = […])
Assay type: biochemical

T1 sequence (Q09328 214-741): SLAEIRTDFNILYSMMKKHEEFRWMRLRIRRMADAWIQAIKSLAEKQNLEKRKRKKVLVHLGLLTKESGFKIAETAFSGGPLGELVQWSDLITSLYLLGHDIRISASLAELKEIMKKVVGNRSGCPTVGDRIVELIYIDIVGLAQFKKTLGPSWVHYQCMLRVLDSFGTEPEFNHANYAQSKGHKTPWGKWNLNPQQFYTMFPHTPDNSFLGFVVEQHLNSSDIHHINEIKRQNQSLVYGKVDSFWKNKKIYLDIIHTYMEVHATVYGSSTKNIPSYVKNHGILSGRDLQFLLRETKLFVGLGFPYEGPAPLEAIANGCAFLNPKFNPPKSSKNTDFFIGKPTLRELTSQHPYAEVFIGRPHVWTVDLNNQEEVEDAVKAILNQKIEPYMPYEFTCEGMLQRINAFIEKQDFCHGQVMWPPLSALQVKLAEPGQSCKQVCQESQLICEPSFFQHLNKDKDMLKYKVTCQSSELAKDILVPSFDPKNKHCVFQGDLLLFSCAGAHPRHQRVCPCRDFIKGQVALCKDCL

## CC(=O)N1CCCC(C(=O)O)(c2ccc(C)cc2)C1 (racemic) [8p]
  IC50: ~4.4 mM
